Experimental data published in ChEMBL document CHEMBL3991601, “The target landscape of clinical kinase drugs” (Science, 2017).
The source made the active and inactive calls. Cut-off read from the data, not from the text of the source, for most assays here: actives have a measured Kd and inactives only a lower limit.

Assays:
[1] = target: Mitotic checkpoint serine/threonine-protein kinase BUB1 (Homo sapiens, UniProt O43683)
[2] = target: T1, Dual specificity mitogen-activated protein kinase kinase 3 (Homo sapiens, UniProt P46734)
T1 sequence (P46734 whole entry): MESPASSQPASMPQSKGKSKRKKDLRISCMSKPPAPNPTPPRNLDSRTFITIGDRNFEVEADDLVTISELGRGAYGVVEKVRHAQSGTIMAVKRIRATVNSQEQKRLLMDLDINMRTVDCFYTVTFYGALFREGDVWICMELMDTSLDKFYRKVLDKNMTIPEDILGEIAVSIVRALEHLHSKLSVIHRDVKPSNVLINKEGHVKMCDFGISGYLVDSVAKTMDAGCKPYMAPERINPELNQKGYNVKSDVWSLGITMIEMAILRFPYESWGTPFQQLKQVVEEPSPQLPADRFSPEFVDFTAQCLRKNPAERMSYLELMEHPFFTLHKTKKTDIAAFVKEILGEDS

[3] = target: Tyrosine-protein kinase JAK1 (Homo sapiens, UniProt P23458)
[4] = target: T2, Mitogen-activated protein kinase kinase kinase 2 (Homo sapiens, UniProt Q9Y2U5)
T2 sequence (Q9Y2U5 whole entry): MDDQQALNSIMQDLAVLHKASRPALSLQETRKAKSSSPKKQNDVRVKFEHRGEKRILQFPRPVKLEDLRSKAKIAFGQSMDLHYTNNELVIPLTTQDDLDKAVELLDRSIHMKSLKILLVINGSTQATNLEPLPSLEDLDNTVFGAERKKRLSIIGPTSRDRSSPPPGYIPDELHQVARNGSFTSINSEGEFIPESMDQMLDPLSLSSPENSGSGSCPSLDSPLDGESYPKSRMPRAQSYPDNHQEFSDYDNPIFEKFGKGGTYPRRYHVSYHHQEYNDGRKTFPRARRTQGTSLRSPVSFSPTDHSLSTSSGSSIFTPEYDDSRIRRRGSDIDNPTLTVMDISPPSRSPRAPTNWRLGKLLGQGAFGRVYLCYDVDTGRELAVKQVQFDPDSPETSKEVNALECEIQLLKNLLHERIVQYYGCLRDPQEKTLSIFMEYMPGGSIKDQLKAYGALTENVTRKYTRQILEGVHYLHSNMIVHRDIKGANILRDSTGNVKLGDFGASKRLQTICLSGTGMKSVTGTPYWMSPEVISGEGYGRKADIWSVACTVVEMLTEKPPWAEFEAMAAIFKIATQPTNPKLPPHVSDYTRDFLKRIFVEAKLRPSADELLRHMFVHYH

[5] = target: Dual specificity mitogen-activated protein kinase kinase 1 (Homo sapiens, UniProt Q02750)
[6] = target: T3, Mitogen-activated protein kinase kinase kinase 6 (Homo sapiens, UniProt O95382)
T3 sequence (O95382 whole entry): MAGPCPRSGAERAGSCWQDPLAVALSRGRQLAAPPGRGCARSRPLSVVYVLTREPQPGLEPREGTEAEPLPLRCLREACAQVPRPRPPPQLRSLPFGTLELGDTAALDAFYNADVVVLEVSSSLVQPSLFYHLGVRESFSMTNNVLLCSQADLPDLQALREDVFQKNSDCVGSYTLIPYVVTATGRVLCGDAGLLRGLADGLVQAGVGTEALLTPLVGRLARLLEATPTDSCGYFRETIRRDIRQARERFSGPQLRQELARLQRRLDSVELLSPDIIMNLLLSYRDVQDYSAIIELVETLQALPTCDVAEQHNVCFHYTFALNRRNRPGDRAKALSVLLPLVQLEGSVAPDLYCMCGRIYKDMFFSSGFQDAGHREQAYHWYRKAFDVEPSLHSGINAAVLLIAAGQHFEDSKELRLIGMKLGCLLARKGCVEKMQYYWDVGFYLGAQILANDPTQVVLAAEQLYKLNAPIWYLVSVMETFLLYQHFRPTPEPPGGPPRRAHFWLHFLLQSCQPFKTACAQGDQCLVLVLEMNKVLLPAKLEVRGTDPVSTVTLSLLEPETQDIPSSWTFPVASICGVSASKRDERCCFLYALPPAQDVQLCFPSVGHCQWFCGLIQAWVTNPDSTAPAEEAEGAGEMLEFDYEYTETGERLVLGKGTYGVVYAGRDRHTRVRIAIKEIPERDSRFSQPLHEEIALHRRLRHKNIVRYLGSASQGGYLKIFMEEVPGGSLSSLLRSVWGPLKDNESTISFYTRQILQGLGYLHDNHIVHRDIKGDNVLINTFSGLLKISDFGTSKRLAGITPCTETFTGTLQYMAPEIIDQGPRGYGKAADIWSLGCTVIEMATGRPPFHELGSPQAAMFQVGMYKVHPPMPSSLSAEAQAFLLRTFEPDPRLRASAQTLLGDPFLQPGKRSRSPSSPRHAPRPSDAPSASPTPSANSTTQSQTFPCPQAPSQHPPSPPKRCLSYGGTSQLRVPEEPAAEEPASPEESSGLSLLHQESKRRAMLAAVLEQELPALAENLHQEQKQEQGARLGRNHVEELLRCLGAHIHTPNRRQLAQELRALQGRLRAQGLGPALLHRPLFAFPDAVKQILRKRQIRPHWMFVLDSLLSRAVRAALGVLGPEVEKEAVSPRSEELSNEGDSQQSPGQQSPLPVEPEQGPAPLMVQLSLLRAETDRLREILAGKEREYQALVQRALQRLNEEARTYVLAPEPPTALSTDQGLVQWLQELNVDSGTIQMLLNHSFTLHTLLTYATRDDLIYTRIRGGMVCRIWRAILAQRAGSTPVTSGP

[7] = target: Glycogen synthase kinase-3 beta (Homo sapiens, UniProt P49841)
[8] = target: T4, Succinate--CoA ligase [ADP-forming] subunit beta, mitochondrial (Homo sapiens, UniProt Q9P2R7)
T4 sequence (Q9P2R7 whole entry): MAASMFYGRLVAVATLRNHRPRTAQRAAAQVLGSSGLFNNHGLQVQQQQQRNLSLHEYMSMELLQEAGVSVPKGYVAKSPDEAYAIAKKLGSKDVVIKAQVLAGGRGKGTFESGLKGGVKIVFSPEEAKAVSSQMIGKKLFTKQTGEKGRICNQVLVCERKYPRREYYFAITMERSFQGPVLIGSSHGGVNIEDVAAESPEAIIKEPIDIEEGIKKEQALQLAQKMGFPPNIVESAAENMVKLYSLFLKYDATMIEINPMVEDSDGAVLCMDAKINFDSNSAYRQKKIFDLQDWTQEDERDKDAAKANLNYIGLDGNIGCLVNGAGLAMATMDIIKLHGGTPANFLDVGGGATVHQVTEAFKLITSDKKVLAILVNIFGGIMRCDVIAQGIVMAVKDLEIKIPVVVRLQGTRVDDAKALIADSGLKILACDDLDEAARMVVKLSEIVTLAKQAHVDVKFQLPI

[9] = target: MAP/microtubule affinity-regulating kinase 3 (Homo sapiens, UniProt P27448)
Note: in the data inactive means no Kd found up to 30 µM.

Sequence of Tyrosine-protein kinase JAK1 (P23458 whole entry): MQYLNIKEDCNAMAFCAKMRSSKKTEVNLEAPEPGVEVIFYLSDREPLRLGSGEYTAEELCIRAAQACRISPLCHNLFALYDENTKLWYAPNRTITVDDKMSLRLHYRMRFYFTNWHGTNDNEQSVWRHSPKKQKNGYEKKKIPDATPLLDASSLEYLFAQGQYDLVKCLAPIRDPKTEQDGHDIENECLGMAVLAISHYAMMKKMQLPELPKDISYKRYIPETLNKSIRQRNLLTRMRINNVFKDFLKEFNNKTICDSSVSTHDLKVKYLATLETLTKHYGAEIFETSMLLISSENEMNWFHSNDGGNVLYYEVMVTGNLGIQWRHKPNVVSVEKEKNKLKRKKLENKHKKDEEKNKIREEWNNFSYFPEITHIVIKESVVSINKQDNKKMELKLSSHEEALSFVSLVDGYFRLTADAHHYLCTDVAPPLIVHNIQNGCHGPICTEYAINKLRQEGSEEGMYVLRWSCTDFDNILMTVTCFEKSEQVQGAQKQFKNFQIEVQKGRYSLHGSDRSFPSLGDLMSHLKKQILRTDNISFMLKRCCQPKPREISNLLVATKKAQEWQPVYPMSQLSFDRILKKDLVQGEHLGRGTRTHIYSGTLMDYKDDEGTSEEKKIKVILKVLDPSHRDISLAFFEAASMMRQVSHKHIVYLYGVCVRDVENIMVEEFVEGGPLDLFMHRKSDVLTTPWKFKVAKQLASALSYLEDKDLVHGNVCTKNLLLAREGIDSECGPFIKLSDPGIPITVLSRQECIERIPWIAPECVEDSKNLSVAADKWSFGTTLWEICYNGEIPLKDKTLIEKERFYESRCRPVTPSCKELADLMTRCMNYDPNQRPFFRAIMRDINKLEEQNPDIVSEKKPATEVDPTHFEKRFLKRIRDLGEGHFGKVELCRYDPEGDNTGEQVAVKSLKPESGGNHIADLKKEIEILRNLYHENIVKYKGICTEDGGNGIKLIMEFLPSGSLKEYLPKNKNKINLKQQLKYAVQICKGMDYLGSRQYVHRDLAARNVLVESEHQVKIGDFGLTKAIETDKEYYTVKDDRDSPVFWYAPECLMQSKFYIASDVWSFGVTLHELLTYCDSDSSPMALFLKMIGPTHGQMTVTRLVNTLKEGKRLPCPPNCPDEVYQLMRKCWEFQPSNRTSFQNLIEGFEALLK
Sequence of MAP/microtubule affinity-regulating kinase 3 (P27448 whole entry): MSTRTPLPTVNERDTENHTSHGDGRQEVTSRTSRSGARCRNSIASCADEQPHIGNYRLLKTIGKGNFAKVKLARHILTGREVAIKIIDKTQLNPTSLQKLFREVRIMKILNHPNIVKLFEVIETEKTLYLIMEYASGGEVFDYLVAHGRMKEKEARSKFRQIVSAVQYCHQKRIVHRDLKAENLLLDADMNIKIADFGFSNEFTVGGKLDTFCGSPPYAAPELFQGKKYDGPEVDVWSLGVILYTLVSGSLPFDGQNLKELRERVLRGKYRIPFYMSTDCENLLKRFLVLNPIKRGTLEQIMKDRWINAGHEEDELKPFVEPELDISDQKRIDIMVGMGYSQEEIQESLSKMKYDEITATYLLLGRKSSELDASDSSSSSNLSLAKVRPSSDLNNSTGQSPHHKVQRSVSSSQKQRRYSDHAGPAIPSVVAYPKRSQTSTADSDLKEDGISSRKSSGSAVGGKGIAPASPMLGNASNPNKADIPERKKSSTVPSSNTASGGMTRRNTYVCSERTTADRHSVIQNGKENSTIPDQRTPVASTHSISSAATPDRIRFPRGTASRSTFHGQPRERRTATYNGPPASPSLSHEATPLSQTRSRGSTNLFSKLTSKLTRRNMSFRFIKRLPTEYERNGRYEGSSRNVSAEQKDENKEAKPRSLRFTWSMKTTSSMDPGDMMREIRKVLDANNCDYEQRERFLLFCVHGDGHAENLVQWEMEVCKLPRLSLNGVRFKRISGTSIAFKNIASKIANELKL
Sequence of Dual specificity mitogen-activated protein kinase kinase 1 (Q02750 whole entry): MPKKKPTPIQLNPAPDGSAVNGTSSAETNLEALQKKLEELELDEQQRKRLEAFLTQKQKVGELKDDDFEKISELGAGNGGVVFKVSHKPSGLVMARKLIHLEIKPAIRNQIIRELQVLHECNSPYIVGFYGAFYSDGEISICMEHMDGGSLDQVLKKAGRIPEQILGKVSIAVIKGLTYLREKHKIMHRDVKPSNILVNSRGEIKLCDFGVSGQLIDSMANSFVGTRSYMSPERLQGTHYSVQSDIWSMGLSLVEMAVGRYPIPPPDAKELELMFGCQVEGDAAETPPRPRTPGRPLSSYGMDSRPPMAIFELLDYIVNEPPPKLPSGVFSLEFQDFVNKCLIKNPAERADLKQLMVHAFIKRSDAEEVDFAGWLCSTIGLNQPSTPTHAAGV
Sequence of Glycogen synthase kinase-3 beta (P49841 whole entry): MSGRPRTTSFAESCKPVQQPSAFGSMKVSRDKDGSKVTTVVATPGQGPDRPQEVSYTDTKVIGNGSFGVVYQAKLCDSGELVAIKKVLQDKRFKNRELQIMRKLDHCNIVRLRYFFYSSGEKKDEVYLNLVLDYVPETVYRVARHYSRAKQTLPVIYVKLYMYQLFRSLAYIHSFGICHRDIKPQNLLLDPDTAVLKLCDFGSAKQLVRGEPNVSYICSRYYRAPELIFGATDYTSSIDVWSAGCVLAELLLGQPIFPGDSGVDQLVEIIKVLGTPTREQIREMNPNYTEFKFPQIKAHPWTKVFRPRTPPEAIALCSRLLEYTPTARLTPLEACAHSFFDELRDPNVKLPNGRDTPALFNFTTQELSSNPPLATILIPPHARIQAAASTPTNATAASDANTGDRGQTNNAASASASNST
Sequence of Mitotic checkpoint serine/threonine-protein kinase BUB1 (O43683 whole entry): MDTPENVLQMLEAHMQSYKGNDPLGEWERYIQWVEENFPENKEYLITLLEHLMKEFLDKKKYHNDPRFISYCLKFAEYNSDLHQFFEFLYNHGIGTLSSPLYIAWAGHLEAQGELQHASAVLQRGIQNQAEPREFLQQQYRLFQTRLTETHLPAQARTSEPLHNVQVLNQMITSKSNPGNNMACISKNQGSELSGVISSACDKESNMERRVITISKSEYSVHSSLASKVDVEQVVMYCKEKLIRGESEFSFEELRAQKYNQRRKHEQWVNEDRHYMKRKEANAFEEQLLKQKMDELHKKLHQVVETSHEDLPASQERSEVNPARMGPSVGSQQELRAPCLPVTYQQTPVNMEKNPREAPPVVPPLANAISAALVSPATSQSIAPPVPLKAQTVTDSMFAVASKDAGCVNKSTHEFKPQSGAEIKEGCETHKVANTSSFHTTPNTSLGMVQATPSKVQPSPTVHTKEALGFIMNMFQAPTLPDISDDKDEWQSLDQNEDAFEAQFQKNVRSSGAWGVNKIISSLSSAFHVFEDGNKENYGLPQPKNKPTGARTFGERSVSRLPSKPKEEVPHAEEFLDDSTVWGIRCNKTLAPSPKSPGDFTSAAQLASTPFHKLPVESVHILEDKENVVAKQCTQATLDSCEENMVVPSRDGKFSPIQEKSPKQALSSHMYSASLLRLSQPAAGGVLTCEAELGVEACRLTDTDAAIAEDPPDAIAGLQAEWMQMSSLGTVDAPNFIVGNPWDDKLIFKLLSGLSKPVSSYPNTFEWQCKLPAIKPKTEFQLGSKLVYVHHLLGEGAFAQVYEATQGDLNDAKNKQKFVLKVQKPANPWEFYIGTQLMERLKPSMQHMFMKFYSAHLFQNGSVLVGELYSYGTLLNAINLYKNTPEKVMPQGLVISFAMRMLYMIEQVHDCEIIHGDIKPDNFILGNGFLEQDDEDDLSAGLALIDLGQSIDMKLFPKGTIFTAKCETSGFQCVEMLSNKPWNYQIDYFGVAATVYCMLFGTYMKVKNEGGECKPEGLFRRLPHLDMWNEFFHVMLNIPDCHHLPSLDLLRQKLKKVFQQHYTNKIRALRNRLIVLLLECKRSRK

| SMILES | Kd [1] | Kd [2] | Kd [3] | Kd [4] | Kd [5] | Kd [6] | Kd [7] | Kd [8] | Kd [9] |
| --- | --- | --- | --- | --- | --- | --- | --- | --- | --- |
| Cc1cc2c(F)c(Oc3ncnn4cc(OC[C@@H](C)OC(=O)[C@H](C)N)c(C)c34)ccc2[nH]1 [BRIVANIB ALANINATE] | > 30 µM (inactive) | > 30 µM (inactive) | > 30 µM (inactive) | > 30 µM (inactive) | > 30 µM (inactive) | > 30 µM (inactive) | > 30 µM (inactive) | > 30 µM (inactive) | > 30 µM (inactive) |
| C=CC(=O)N1CCC(Oc2cc3c(Nc4ccc(Cl)c(Cl)c4F)ncnc3cc2OC)CC1 [POZIOTINIB] | > 30 µM (inactive) | > 30 µM (inactive) | > 30 µM (inactive) | > 30 µM (inactive) | > 30 µM (inactive) | > 30 µM (inactive) | > 30 µM (inactive) | > 30 µM (inactive) | > 30 µM (inactive) |
| Cc1ccc(-n2nc(C(C)(C)C)cc2NC(=O)NCc2cc(F)ccc2Oc2ccc3c(cnn3CCO)c2)cc1 [PEXMETINIB] | > 30 µM (inactive) | > 30 µM (inactive) | > 30 µM (inactive) | > 30 µM (inactive) | > 30 µM (inactive) | > 30 µM (inactive) | > 30 µM (inactive) | > 30 µM (inactive) | > 30 µM (inactive) |
| CC[C@H](Nc1ncnc2[nH]cnc12)c1nc2cccc(F)c2c(=O)n1-c1ccccc1 [IDELALISIB] | > 30 µM (inactive) | > 30 µM (inactive) | > 30 µM (inactive) | > 30 µM (inactive) | > 30 µM (inactive) | > 30 µM (inactive) | > 30 µM (inactive) | > 30 µM (inactive) | > 30 µM (inactive) |
| O=C1NC(=O)/C(=C/c2ccc3nccc(-c4ccncc4)c3c2)S1 [GSK-1059615] | > 30 µM (inactive) | > 30 µM (inactive) | > 30 µM (inactive) | > 30 µM (inactive) | 18.5 µM (active) | > 30 µM (inactive) | > 30 µM (inactive) | > 30 µM (inactive) | > 30 µM (inactive) |
| CNC(=O)c1cc(Oc2ccc(NC(=O)Nc3ccc(Cl)c(C(F)(F)F)c3)c(F)c2)ccn1 [REGORAFENIB] | > 30 µM (inactive) | > 30 µM (inactive) | > 30 µM (inactive) | > 30 µM (inactive) | > 30 µM (inactive) | > 30 µM (inactive) | > 30 µM (inactive) | > 30 µM (inactive) | > 30 µM (inactive) |
| CN1N=C(N)c2cn([C@@H]3O[C@H](COP(=O)(O)O)[C@@H](O)[C@H]3O)c3ncnc1c23 [TRICIRIBINE PHOSPHATE] | > 30 µM (inactive) | > 30 µM (inactive) | > 30 µM (inactive) | > 30 µM (inactive) | > 30 µM (inactive) | > 30 µM (inactive) | > 30 µM (inactive) | > 30 µM (inactive) | > 30 µM (inactive) |
| CN1CCC(CNc2ccc3ncc(-c4cccc(OC(F)(F)F)c4)n3n2)CC1 [SGI-1776] | > 30 µM (inactive) | > 30 µM (inactive) | > 30 µM (inactive) | > 30 µM (inactive) | > 30 µM (inactive) | > 30 µM (inactive) | > 30 µM (inactive) | > 30 µM (inactive) | > 30 µM (inactive) |
| CC[C@@H]1C(=O)N(C)c2cnc(Nc3ccc(C(=O)N[C@H]4CC[C@H](N5CCN(CC6CC6)CC5)CC4)cc3OC)nc2N1C(C)C [VOLASERTIB] | > 30 µM (inactive) | > 30 µM (inactive) | > 30 µM (inactive) | > 30 µM (inactive) | > 30 µM (inactive) | > 30 µM (inactive) | > 30 µM (inactive) | > 30 µM (inactive) | > 30 µM (inactive) |
| CN1CC[C@@H](c2c(O)cc(O)c3c(=O)cc(-c4ccccc4Cl)oc23)[C@@H]1CO | > 30 µM (inactive) | > 30 µM (inactive) | > 30 µM (inactive) | > 30 µM (inactive) | > 30 µM (inactive) | > 30 µM (inactive) | 2.72 µM (active) | > 30 µM (inactive) | > 30 µM (inactive) |
| Cc1ccc(S(=O)(=O)Nc2nc3ccccc3nc2Nc2ccc3nsnc3c2)cc1 | > 30 µM (inactive) | > 30 µM (inactive) | > 30 µM (inactive) | > 30 µM (inactive) | > 30 µM (inactive) | > 30 µM (inactive) | > 30 µM (inactive) | > 30 µM (inactive) | > 30 µM (inactive) |
| COC(=O)N[C@@H](C)CNc1nccc(-c2cn(C(C)C)nc2-c2cc(Cl)cc(NS(C)(=O)=O)c2F)n1 [ENCORAFENIB] | > 30 µM (inactive) | > 30 µM (inactive) | > 30 µM (inactive) | > 30 µM (inactive) | > 30 µM (inactive) | > 30 µM (inactive) | 0.425 µM (active) | > 30 µM (inactive) | > 30 µM (inactive) |
| COCCNCc1ccc(-c2cc3nccc(Oc4ccc(NC(=S)NC(=O)Cc5ccc(F)cc5)cc4F)c3s2)nc1 [GLESATINIB] | > 30 µM (inactive) | > 30 µM (inactive) | > 30 µM (inactive) | > 30 µM (inactive) | > 30 µM (inactive) | > 30 µM (inactive) | > 30 µM (inactive) | > 30 µM (inactive) | > 30 µM (inactive) |
| Cc1c(F)cc(C(=O)NC2CC2)cc1-c1ccc(C(=O)NCC(C)(C)C)cn1 [LOSMAPIMOD] | 1.92 µM | > 30 µM (inactive) | > 30 µM (inactive) | > 30 µM (inactive) | > 30 µM (inactive) | > 30 µM (inactive) | > 30 µM (inactive) | > 30 µM (inactive) | > 30 µM (inactive) |
